Measurements reported in US5763700A, “Pesticidal fluoroolefins” (British Technology Group Limited, priority 1992, dated 1998).

Each molecule was assayed on cornroot worm (Diabrotica balteata) (assay: Residual soil activity against cornroot worm larvae, mortality after 48 hours, LC50 by probit analysis). Settings: sandy soil, 10% moisture, 22 g, 20° C., 10 larvae, two replicates, 5 dose levels.
Format: in vivo
Description: Residual soil activity of the compounds of Examples 25 to 40 was assessed against cornroot worm (Diabrotica balteata) using the following technique.
A known quantity of test compound dissolved in 1.0 ml acetone was applied evenly to a standard amount (22 g) of a sandy soil with a 10% moisture content. After 1 hour, 10 larvae were introduced. The temperature was maintained at 20° C. ±1° C. and mortality assessed after 48 hours. Two replicates of 10 larvae were used at each of 5 dose levels per compound. LC50 values were calculated as concentration of insecticide in the standard amount of soil using probit analysis.
For `Fc1ccc(C/C=C/C2(c3ccc(Cl)cc3)CC2)cc1Oc1ccccc1` [Comp A, 1-(4-chlorophenyl)-1-(E-3-(4-fluoro-3-phenoxyphenyl)prop-1-enyl)-cyclopropane, reference compound], the “Residual Soil Activity (LC50)” value was 0.68 ppm. With `CCOc1ccc(C2(/C=C/Cc3ccc(F)c(Oc4ccccc4)c3)CC2)cc1` [Comp B, 1-(4-ethoxyphenyl)-1-(E-3-(4-fluoro-3-phenoxyphenyl)prop-1-enyl)-cyclopropane, reference compound] the “Residual Soil Activity (LC50)” value was 0.43 ppm. With `Fc1ccc(C2(/C=C/Cc3ccc(F)c(Oc4ccccc4)c3)CC2)cc1` [Comp C, 1-(4-fluorophenyl)-1-(E-3-(4-fluoro-3-phenoxyphenyl)prop-1-enyl)-cyclopropane, reference compound] the “Residual Soil Activity (LC50)” value was 0.059 ppm. For `FC(F)(F)Oc1ccc(C2(/C=C/Cc3cccc(Oc4ccccc4)c3)CC2)cc1` [Comp D, 1-(4-trifluoromethoxyphenyl)-1-(E-3-(3-phenoxyphenyl)prop-1-enyl)-cyclopropane, reference compound], the “Residual Soil Activity (LC50)” value was 0.059 ppm. With `F/C(=C\C1(c2ccc(Cl)cc2)CC1)Cc1cccc(Oc2ccccc2)c1` [Example 25, 1-(4-Chlorophenyl)-1-(2-fluoro-3-(3-phenoxyphenyl)prop-1-enyl)cyclopropane] the “Residual Soil Activity (LC50)” value was 0.031 ppm. `CCOc1ccc(C2(/C=C(\F)Cc3cccc(Oc4ccccc4)c3)CC2)cc1` [Example 26, 1-(4-Ethoxyphenyl)-1-(2-fluoro-3-(3-phenoxyphenyl)prop-1-enyl)cyclopropane] was tested, and the “Residual Soil Activity (LC50)” value was 0.029 ppm. With `F/C(=C\C1(c2ccc(OC(F)(F)F)cc2)CC1)Cc1cccc(Oc2ccccc2)c1` [Example 27, 1-(2-Fluoro-3-(3-phenoxyphenyl)prop-1-enyl)-1-(4-trifluoromethoxy-phenyl)cyclopropane] the “Residual Soil Activity (LC50)” value was 0.038 ppm. `F/C(=C\C1(c2ccc(F)cc2)CC1)Cc1cccc(Oc2ccccc2)c1` [Example 28, 1-(2-Fluoro-3-(3-phenoxyphenyl)prop-1-enyl)-1-(4-fluorophenyl)cyclopropane] was tested, and the “Residual Soil Activity (LC50)” value was 0.015 ppm. `F/C(=C\C1(c2ccc(C(F)(F)F)cc2F)CC1)Cc1cccc(Oc2ccccc2)c1` [Example 29, 1-(2-Fluoro-3-(3-phenoxyphenyl)prop-1-enyl)-1-(2-fluoro-4-trifluoromethylphenyl) cyclopropane] was tested, and the “Residual Soil Activity (LC50)” value was 0.030 ppm. In the case of `F/C(=C\C1(c2ccc3c(c2)OCO3)CC1)Cc1cccc(Oc2ccccc2)c1` [Example 30, 1-(2-Fluoro-3-(3-phenoxyphenyl)prop-1-enyl)-1-(3,4-methylenedioxyphenyl)cyclopropane], the “Residual Soil Activity (LC50)” value is reported as 0.021 ppm. `F/C(=C\C1(c2ccc(OC(F)F)cc2)CC1)Cc1cccc(Oc2ccccc2)c1` [Example 32, 1-(4-Difluoromethoxyphenyl)-1-(2-fluoro-3-(3-phenoxyphenyl)prop-1-enyl)cyclopropane] was tested, and the “Residual Soil Activity (LC50)” value was 0.055 ppm. For `CCOc1ccc(C2(/C=C(\F)Cc3ccc(F)c(Oc4ccccc4)c3)CC2)cc1` [Example 34, 1-(4-Ethoxyphenyl)-1-(2-fluoro-3-(4-fluoro-3-phenoxyphenyl)prop-1-enyl)cyclopropane], the “Residual Soil Activity (LC50)” value was 0.031 ppm. In the case of `F/C(=C\C1(c2ccc(F)cc2)CC1)Cc1ccc(F)c(Oc2ccccc2)c1` [Example 35, 1-(2-Fluoro-3-(4-fluoro-3-phenoxyphenyl)prop-1-enyl)-1-(4-fluorophenyl)cyclopropane], the “Residual Soil Activity (LC50)” value is reported as 0.032 ppm. `F/C(=C\C1(c2ccc(C(F)(F)F)cc2F)CC1)Cc1ccc(F)c(Oc2ccccc2)c1` [Example 36, 1-(2-Fluoro-3-(4-fluoro-3-phenoxyphenyl)prop-1-enyl)-1-(2-fluoro-4-trifluoromethylphenyl)cyclopropane] was tested, and the “Residual Soil Activity (LC50)” value was 0.021 ppm. With `F/C(=C\C1(c2ccc3c(c2)OCO3)CC1)Cc1ccc(F)c(Oc2ccccc2)c1` [Example 37, 1-(2-Fluoro-3-(4-fluoro-3-phenoxyphenyl)prop-1-enyl)-1-(3,4-methylenedioxyphenyl)cyclopropane] the “Residual Soil Activity (LC50)” value was 0.055 ppm. For `F/C(=C\C1(c2ccc(OC(F)F)cc2)CC1)Cc1ccc(F)c(Oc2ccccc2)c1` [Example 39, 1-(4-Difluoromethoxyphenyl)-1-(2-fluoro-3-(4-fluoro-3-phenoxyphenyl)prop-1-enyl)cyclopropane], the “Residual Soil Activity (LC50)” value was 0.033 ppm.
